# Entries after “also recorded” stand apart in the source; their conditions may differ.
# Assays:
# [1] = tested on: human metastatic prostate cancer PC-3M cells; assay: Orthotopic PC-3M prostate cancer model in SCID mice, primary tumor and metastases; assay type: in vivo, male SCID; conditions: 32-mouse study
# Text: PC-3 & PC-3M (human prostate carcinoma). The PC-3 human prostate cancer cell line was originally obtained from the American Type Culture Collection (Rockville, Md.). The PC-3M cell line was kindly provided by Dr. Issac (MD Anderson Cancer Center). This cell variant was derived from a liver metastasis produced by the parental PC-3 cells growing in the spleen of a nude mouse [Pettaway C A, Pathak S, Greene G. et al. Selection of highly metastatic variants of different human prostate carcinomas utilizing orthotopic implantation in nude mice. Clin Cancer Res 1996; 2:1627-36].
# Cell cultures were maintained in 5% CO2/95% air at 37° C. SKMEL-V (human melanoma cells). SKMEL-V cells were derived from SKMEL-24 cells (ATCC) by overexpression of mouse VEGF.
# Exponentially growing cells were harvested using a brief exposure to 0.25% trypsins:0.1% EDTA solution (w/v).
# Mice were anesthesized with isofluorane given by inhalation and placed in a supine position. Betadine and 75% Ethanol was used to clean the skin of abdomen. A low midline incision was made and the prostate was exposed. Fifty microliters of HBSS containing 1×10^6 cells was injected into a lateral lobe of the prostate. […]
# Primary tumors in the prostate were excised, measured, and weighed. […]
# The in vivo data was analyzed using the Mann-Whitney U test.
# [2] = assay type: in vivo
# Text: (§1) Control groups received the vehicle alone.
# [3] = tested on: HCT-116 colorectal carcinoma; assay: Colorectal carcinoma model HCT-116 in SCID mice, tumor growth delay; assay type: in vivo, Mouse (Mus musculus); male SCID; conditions: dosage of 60 mg/kg
# Text: as §1
# [4] = tested on: rat C6 glioma cells; assay: Cell proliferation assay ([3H] thymidine incorporation), C6 glioma cells; assay type: cell-based; conditions: 6.5 μM, 18 h, hHO-1 transfected rat C6 glioma cells; hydrochloride
# Protocol: Rat C6 glioma cells were cultivated in high glucose DMEM supplemented with 10% heat-inactivated fetal bovine serum, […] glutamine, and penicillin-streptomycin (50 U/mL and 50 μg/in L, respectively). […] All cultures were incubated at 37° C. in humidified 95% air-5% CO2.
# Cells were seeded in 24-well plates at 1×10^6 cells/mL/well. Upon reaching >90% confluence, cells in each well were transiently transfected with 1.6 μg of plasmid DNA-Lipofectamine 2000 complex using Lipofectamine 2000 method according to manufacturer instructions (Invitrogen). 1.6 μg of plasmid DNA and 4 μL of Lipofectamine 2000 reagent were diluted individually in 100 μL opti-MEM I and incubated for 5 minutes at room temperature with gentle mixing. […]
# Cell proliferation was determined by [^3H] thymidine incorporation: Cells were plated in 24-well plates at 10^6 cells/mL/well in complete medium. […] The cells were trypsinized and collected, air-dried on 21 mm glass microfibre filters (Whatman International Ltd., Maidstone, England) and analyzed by scintillation counting in a Wallac-Liquid Scintillator Counter (Perkin Elmer Life Sciences, Boston, Mass., USA). [^3H] thymidine incorporation was expressed as counts per min (cpm) per mL.
# [5] = tested on: SKMEL-V human melanoma cells; assay: Human melanoma model SKMEL-V+ in SCID mice (pilot study), tumor growth; assay type: in vivo, Mouse (Mus musculus); SCID
# Text: Human melanoma cells (“SKMEL-V cells”) were derived from SKMEL-24 cells (ATCC) by over expression of mouse VEGF.
# Only those cells with >95% viability were used for in-viva studies.
# Once tumors reached a size of approximately 0.7 cm^3, they were removed under sterile condition, sliced into small pieces under a stereo-microscope. Each tissue piece was then re-inoculated subcutaneously. Only pieces of approximately the same size and with no signs of necrosis were used.
# All data in this study are presented as mean±SE. Statistical analyses were performed by one-way ANOVA followed by Newman-Keuls post-hoc comparisons to assess significant main effects within groups. Statistical significance was set at p<0.05.
smiles,measurement,setting,value
"Brc1ccc(CCC2(Cn3ccnc3)OCCO2)cc1.Cl [QC-56, 1-((2-(2-(4-Bromophenyl)ethyl)-1,3-dioxolan-2-yl)methyl)-1H-imidazole hydrochloride]",formation of macroscopic lymph node metastases,[1],complete inhibition
same,toxicity in the combination study,"[2]; QC-56 60 mg/kg ip, 4 cycles, chemotherapy drugs ip",No apparent toxicity
same,tolerability at multiple doses up to 100 mg/kg,"[2]; multiple doses up to 100 mg/kg, intraperitoneal and intravenous routes, hydrochloride",well tolerated with no apparent signs of toxicity; also recorded: well tolerated
same,mortality,[3],not
same,"3H-thymidine incorporation, hHO-1 transfected cells",[4],significantly attenuated the effects of hHO-1 transfection on ^3H-thymidine incorporation; also recorded: this rate of proliferation was attenuated
same,tumor volume compared with vehicle alone,[5]; 30 mg/kg (P<0.03),statistically significantly smaller
same,tumor volume compared with vehicle alone,[5]; 60 mg/kg (P<0.02),statistically significantly smaller
